Inconclusive results are not listed.

This passage reports T/C results from PubChem BioAssay AID206 (DTP/NCI, 2004).

For the assay, the system named is nude mice, HT29 intrarenal xenograft, tumor weight T/C. Put plainly: NCI In Vivo Anticancer Drug Screen. Data for tumor model HT29;CX-1 Human Adenocarcinoma (MER+) (intrarenal inoculation) in NU/NU Swiss (nude) mice. To be noted: endpoint: mean tumor weight change, higher = larger tumour. On the procedure: The antitumor activity of compounds was measured in mice bearing transplantable tumors. Survival or tumor size were measured and the results are expressed as the measurement made in the treated group (T) divided by the measurement made in the vehicle treated control group (C). The tumor model used in this assay is HT29;CX-1 Human Adenocarcinoma (MER+) (intrarenal inoculation) in NU/NU Swiss (nude) mice

Where [1] appears, read: dose: 5.0 mg/kg/injection, schedule: Q04DX004 (sc), vehicle: saline.
Setting [2] is: dose: 10.0 mg/kg/injection, schedule: Q04DX004 (sc), vehicle: saline.
Where [3] appears, read: dose: 20.0 mg/kg/injection, schedule: Q04DX004 (sc), vehicle: saline.
The mark [4] stands for this setting: dose: 300.0 mg/kg/injection, schedule: Q04DX004 (sc), vehicle: suspension in saline.
[5] abbreviates: dose: 1200.0 mg/kg/injection, schedule: Q04DX004 (sc), vehicle: suspension in saline.
The mark [6] stands for this setting: dose: 50.0 mg/kg/injection, schedule: Q01DX010 (sc), vehicle: Klucel (hydroxypropylcellulose) (HPC).
Where [7] appears, read: dose: 150.0 mg/kg/injection, schedule: Q04DX004 (sc), vehicle: saline with Tween-80.

For the compound `O=c1[nH]cnc2c1ccn2C1OC(CO)C(O)C1O` (stereo unspecified), the T/C runs as follows: under setting [1], 48 % of control; under setting [2], 61 % of control; under setting [3], 69 % of control; (dose: 40.0 mg/kg/injection, schedule: Q04DX004 (sc), vehicle: saline) 97 % of control.
Turning to `O=C(O)C1Cc2nc[nH]c2CN1CO` (stereo unspecified), the T/C reads like this: (dose: 100.0 mg/kg/injection, schedule: Q04DX004 (sc), vehicle: saline with Tween-80) 90 % of control; (dose: 1600.0 mg/kg/injection, schedule: Q04DX004 (sc), vehicle: saline with Tween-80) 108 % of control.
`CCc1ccc(C2=C(O)C(=O)C(c3ccccc3)=C(O)C2=O)cc1`: the T/C (dose: 75.0 mg/kg/injection, schedule: Q04DX004 (sc), vehicle: Klucel (hydroxypropylcellulose) (HPC)) was 159 % of control.
`c1ccc([P+](c2ccccc2)(c2ccccc2)c2ccccc2)cc1`: the T/C runs as follows: under setting [1], 105 % of control; under setting [2], 107 % of control; under setting [3], 68 % of control.
`CC(=O)Nc1ccc(C(=O)C=O)cc1`: the T/C is 57 % of control (dose: 50.0 mg/kg/injection, schedule: Q01DX010 (sc), vehicle: saline with Tween-80); 88 % of control (dose: 100.0 mg/kg/injection, schedule: Q01DX010 (sc), vehicle: saline with Tween-80); 68 % of control (dose: 200.0 mg/kg/injection, schedule: Q01DX010 (sc), vehicle: saline with Tween-80); 26 % of control (dose: 400.0 mg/kg/injection, schedule: Q01DX010 (sc), vehicle: saline with Tween-80); 78 % of control (dose: 800.0 mg/kg/injection, schedule: Q01DX010 (sc), vehicle: saline with Tween-80).
As to `CCOC(=O)C(N)C[S][Sn]([CH3])([CH3])[Cl]` (stereo unspecified), the T/C (dose: 18.75 mg/kg/injection, schedule: Q04DX004 (sc), vehicle: saline) is 169 % of control and the T/C (dose: 75.0 mg/kg/injection, schedule: Q04DX004 (sc), vehicle: saline) is 72 % of control.
As for `C=C(C)C(=O)OC1C/C(CO)=C\C(O)C/C(C)=C/C2OC(=O)C(=C)C21` (stereo unspecified), the T/C was 100 % of control (dose: 20.0 mg/kg/injection, schedule: Q04DX004 (sc), vehicle: saline + alcohol); 83 % of control (dose: 40.0 mg/kg/injection, schedule: Q04DX004 (sc), vehicle: saline + alcohol); 70 % of control (dose: 80.0 mg/kg/injection, schedule: Q04DX004 (sc), vehicle: saline + alcohol).
Regarding `NC(=S)c1ncn(C2OC(CO)C(O)C2O)c1N` (stereo unspecified), the T/C (dose: 150.0 mg/kg/injection, schedule: Q04DX004 (sc), vehicle: suspension in saline) was 95 % of control; the T/C under setting [4] was 120 % of control; the T/C (dose: 600.0 mg/kg/injection, schedule: Q04DX004 (sc), vehicle: suspension in saline) was 102 % of control; the T/C under setting [5] is 66 % of control.
With `N=c1nc2n(cc1F)[C@@H]1O[C@H](CO)[C@@H](O)[C@@H]1O2`, the T/C is 61 % of control under setting [4] and 60 % of control under setting [5].
`CC1CN=C(c2ccc(NC(=O)c3ccc(C(=O)Nc4ccc(C5=NCC(C)N5)cc4)cc3)cc2)N1` (stereo unspecified): the T/C is, setting by setting: (dose: 25.0 mg/kg/injection, schedule: Q01DX010 (sc), vehicle: Klucel (hydroxypropylcellulose) (HPC)) 65 % of control; under setting [6], 34 % of control; (dose: 100.0 mg/kg/injection, schedule: Q01DX010 (sc), vehicle: Klucel (hydroxypropylcellulose) (HPC)) 37 % of control; (dose: 200.0 mg/kg/injection, schedule: Q01DX010 (sc), vehicle: Klucel (hydroxypropylcellulose) (HPC)) 44 % of control.
For `CC1=C2CC(C)(C)/C=C\C(=O)/C(C)=C\C3=C[C@H](C)C[C@]3(O2)C1=O`, under setting [6], the T/C is 49 % of control.
In the case of `Nc1nc(=S)c2[nH]cnc2[nH]1`, the T/C is, setting by setting: (dose: 0.39 mg/kg/injection, schedule: Q01DX010 (sc), vehicle: Klucel (hydroxypropylcellulose) (HPC)) 102 % of control; (dose: 0.78 mg/kg/injection, schedule: Q01DX010 (sc), vehicle: Klucel (hydroxypropylcellulose) (HPC)) 91 % of control.
`CSc1ccc2c(c1)C(N1CCN(C)CC1)Cc1ccccc1S2` (stereo unspecified): the T/C reads like this: (dose: 12.5 mg/kg/injection, schedule: Q04DX004 (sc), vehicle: saline with Tween-80) 80 % of control; (dose: 25.0 mg/kg/injection, schedule: Q04DX004 (sc), vehicle: saline with Tween-80) 98 % of control; (dose: 50.0 mg/kg/injection, schedule: Q04DX004 (sc), vehicle: saline with Tween-80) 124 % of control.
Take `COC1=CC(=O)C(OC)=C(OC)C1=O`: the T/C is 78 % of control (dose: 38.0 mg/kg/injection, schedule: Q04DX004 (sc), vehicle: saline with Tween-80); 88 % of control (dose: 75.0 mg/kg/injection, schedule: Q04DX004 (sc), vehicle: saline with Tween-80); 89 % of control under setting [7].
As for `CC(=O)NC(Cc1ccc(F)cc1)C(=O)O` (stereo unspecified), the T/C (dose: 225.0 mg/kg/injection, schedule: Q04DX004 (sc), vehicle: saline with Tween-80) was 108 % of control; the T/C (dose: 450.0 mg/kg/injection, schedule: Q04DX004 (sc), vehicle: saline with Tween-80) was 114 % of control; the T/C (dose: 900.0 mg/kg/injection, schedule: Q04DX004 (sc), vehicle: saline with Tween-80) is 83 % of control; the T/C (dose: 1800.0 mg/kg/injection, schedule: Q04DX004 (sc), vehicle: saline with Tween-80) is 106 % of control.
For the compound `Brc1ccc(C[N+]23CN4CN(CN(C4)C2)C3)cc1`, the T/C under setting [7] was 69 % of control and the T/C (dose: 300.0 mg/kg/injection, schedule: Q04DX004 (sc), vehicle: saline with Tween-80) was 101 % of control.
Regarding `COC(=O)C[C@](O)(CCCC(C)(C)O)C(=O)O[C@@H]1C(OC)=C[C@]23CCCN2CCc2cc4c(cc2[C@H]13)OCO4`, where the note is “dose: 0.5 mg/kg/injection, schedule: Q01DX010 (sc), vehicle: saline”, the T/C is 41 % of control.
`COc1cc2cc3c4cc(OC)c(OC)cc4cc[n+]3c(C)c2cc1OC` (tested in a mixture with another compound): the T/C (dose: 50.0 mg/kg/injection, schedule: Q01DX010 (sc), vehicle: saline) is 76 % of control and the T/C (dose: 100.0 mg/kg/injection, schedule: Q01DX010 (sc), vehicle: saline) was 68 % of control.
On to `c1cc[c]([Sn][c]2ccccc2)cc1`, for which the T/C is 88 % of control (dose: 80.0 mg/kg/injection, schedule: Q01DX010 (sc), vehicle: saline); 113 % of control (dose: 160.0 mg/kg/injection, schedule: Q01DX010 (sc), vehicle: saline); 122 % of control (dose: 320.0 mg/kg/injection, schedule: Q01DX010 (sc), vehicle: saline).
With `Cc1nc(N)nc(N)c1-c1ccc(Cl)c(Cl)c1`, the T/C by setting is: (dose: 0.32 mg/kg/injection, schedule: Q01DX010 (sc), vehicle: saline) 46 % of control; (dose: 0.63 mg/kg/injection, schedule: Q01DX010 (sc), vehicle: saline) 75 % of control; (dose: 1.25 mg/kg/injection, schedule: Q01DX010 (sc), vehicle: saline) 100 % of control; (dose: 2.5 mg/kg/injection, schedule: Q01DX010 (sc), vehicle: saline) 68 % of control.
Regarding `CC(=O)OCC1OC(OC2=C(CC=C(C)C)C(=O)c3ccccc3C2=O)C(OC(C)=O)C(OC(C)=O)C1OC(C)=O` (stereo unspecified), the T/C runs as follows: (dose: 100.0 mg/kg/injection, schedule: Q04DX004 (sc), vehicle: Klucel (hydroxypropylcellulose) (HPC)) 159 % of control; (dose: 200.0 mg/kg/injection, schedule: Q04DX004 (sc), vehicle: Klucel (hydroxypropylcellulose) (HPC)) 105 % of control.
Regarding `O=NN(CCCl)C(=O)NC1CCCCC1`, the T/C was 85 % of control (dose: 8.0 mg/kg/injection, schedule: Q01DX010 (sc), vehicle: saline with Tween-80); 99 % of control (dose: 8.0 mg/kg/injection, schedule: Q04DX004 (sc), vehicle: carboxymethylcellulose (CMC)); 42 % of control (dose: 16.0 mg/kg/injection, schedule: Q01DX010 (sc), vehicle: saline with Tween-80); 86 % of control (dose: 16.0 mg/kg/injection, schedule: Q04DX004 (sc), vehicle: carboxymethylcellulose (CMC)); 63 % of control (dose: 25.0 mg/kg/injection, schedule: Q04DX004 (sc), vehicle: Klucel (hydroxypropylcellulose) (HPC)); 77 % of control (dose: 32.0 mg/kg/injection, schedule: Q01DX010 (sc), vehicle: saline with Tween-80). The T/C was 89 % of control (dose: 32.0 mg/kg/injection, schedule: Q04DX004 (sc), vehicle: carboxymethylcellulose (CMC)); 116 % of control (dose: 50.0 mg/kg/injection, schedule: Q04DX004 (sc), vehicle: Klucel (hydroxypropylcellulose) (HPC)); 101 % of control (dose: 64.0 mg/kg/injection, schedule: Q04DX004 (sc), vehicle: carboxymethylcellulose (CMC)).
